The values below come from patent publication US20230257372A1 (CHONG KUN DANG PHARMACEUTICAL CORP., priority 2020, published 2023).

pIC50: −log10 of the molar value. Like-named read-outs stand apart in the source and are kept apart here.

The target in one test is T1, human recombinant HDAC6 (Homo sapiens, UniProt Q9UBN7).
T1 construct: purchased Calbiochem Inc. 382180
T1 sequence (Q9UBN7 1-1215): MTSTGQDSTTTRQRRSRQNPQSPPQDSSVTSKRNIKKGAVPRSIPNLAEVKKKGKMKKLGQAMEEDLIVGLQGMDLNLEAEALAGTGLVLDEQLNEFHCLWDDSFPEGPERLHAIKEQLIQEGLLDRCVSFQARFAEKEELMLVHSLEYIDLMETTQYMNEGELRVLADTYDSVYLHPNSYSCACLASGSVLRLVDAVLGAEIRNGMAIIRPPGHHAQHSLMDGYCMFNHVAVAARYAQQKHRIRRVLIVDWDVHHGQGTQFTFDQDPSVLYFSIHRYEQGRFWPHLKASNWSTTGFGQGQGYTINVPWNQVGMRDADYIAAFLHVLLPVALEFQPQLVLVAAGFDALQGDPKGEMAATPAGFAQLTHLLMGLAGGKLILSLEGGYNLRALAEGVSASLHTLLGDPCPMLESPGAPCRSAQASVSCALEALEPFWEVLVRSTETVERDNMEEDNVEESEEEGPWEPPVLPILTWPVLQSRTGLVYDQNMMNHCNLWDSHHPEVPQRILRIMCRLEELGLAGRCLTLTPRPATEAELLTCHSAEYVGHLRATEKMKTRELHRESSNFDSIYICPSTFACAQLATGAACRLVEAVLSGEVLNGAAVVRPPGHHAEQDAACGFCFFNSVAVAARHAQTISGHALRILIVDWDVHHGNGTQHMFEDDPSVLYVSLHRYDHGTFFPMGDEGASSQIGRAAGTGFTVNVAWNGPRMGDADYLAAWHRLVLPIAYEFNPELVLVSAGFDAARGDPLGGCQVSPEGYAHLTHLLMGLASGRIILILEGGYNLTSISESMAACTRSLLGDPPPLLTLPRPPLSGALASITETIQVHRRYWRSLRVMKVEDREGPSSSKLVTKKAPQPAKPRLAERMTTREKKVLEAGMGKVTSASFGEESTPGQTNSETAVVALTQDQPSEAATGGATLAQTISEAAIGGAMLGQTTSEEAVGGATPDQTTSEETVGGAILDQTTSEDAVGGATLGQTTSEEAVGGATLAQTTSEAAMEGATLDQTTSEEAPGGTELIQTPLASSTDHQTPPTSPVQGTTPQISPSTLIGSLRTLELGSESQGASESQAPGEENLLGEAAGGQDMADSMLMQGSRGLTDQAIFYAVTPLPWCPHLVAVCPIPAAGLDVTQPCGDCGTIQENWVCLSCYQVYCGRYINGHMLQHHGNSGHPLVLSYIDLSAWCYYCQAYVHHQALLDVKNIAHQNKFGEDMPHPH
Briefly: HDAC6 enzyme activity inhibition (HDAC Fluorimetric Drug Discovery Kit). The class given is biochemical. The procedure, abridged: (§1)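 Fluorescence from a Fluor de Lys developer step (30 minutes) reports residual deacetylation after a 60-minute, 30° C reaction of […] enzyme with 10 μM substrate and 5-fold compound dilutions.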

For another test, the target named is T2, human recombinant HDAC1 (Homo sapiens, UniProt Q13547).
T2 construct: purchased Enzo Life Science, Inc. BML-SE456
Briefly: HDAC1 enzyme activity inhibition (HDAC Fluorimetric Drug Discovery Kit). It is filed as biochemical. The settings on record: read-out: HDAC1. The essentials: as §1

Where [1] appears, read: human recombinant HDAC6, IC50 calculated with GraphPad Prism.
Where [2] appears, read: human recombinant HDAC1, IC50 calculated with GraphPad Prism.
Setting [3] is: human recombinant HDAC6, same protocol as HDAC1.
[4] abbreviates: human recombinant HDAC1, Fluor de Lys substrate, 30° C. 60 minutes.

T2 sequence (Q13547 whole entry): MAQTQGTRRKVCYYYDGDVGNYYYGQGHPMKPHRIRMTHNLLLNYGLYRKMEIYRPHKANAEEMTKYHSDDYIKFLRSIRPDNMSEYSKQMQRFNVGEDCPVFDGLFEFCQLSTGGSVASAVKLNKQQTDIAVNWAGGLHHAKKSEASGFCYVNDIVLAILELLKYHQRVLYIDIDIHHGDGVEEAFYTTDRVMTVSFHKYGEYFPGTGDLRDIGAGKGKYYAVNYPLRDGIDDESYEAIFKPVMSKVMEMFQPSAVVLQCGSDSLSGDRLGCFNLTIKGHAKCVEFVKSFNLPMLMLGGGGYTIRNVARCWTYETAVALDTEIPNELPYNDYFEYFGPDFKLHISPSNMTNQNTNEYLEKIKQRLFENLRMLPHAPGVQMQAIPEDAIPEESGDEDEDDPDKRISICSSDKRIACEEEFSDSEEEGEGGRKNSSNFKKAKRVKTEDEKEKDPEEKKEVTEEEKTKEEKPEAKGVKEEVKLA

With `FC(F)c1nnc(-c2ccc(Cn3cc(C4CN(C5COC5)C4)nn3)nc2)o1` [Compound 3955, 2-(difluoromethyl)-5-(6-((4-(1-(oxetan-3-yl)azetidin-3-yl)-1H-1,2,3-triazol-1-yl)methyl)pyridin-3-yl)-1,3,4-oxadiazole], the “HDAC6 selectivity (fold)” value on human recombinant HDAC6 (HDAC1 IC50 / HDAC6 IC50) is on record as 95 fold. In addition, the pIC50 at human recombinant HDAC6 (setting [1]) was 6.28; at human recombinant HDAC1 (setting [2]), < 4.30.
For the molecule `FC(F)c1nnc(-c2ccc(Cn3cc(C4CN(C5CCC5)C4)nn3)nc2)o1` [Compound 3954, 2-(6-((4-(1-cyclobutylazetidin-3-yl)-1H-1,2,3-triazol-1-yl)methyl)pyridin-3-yl)-5-(difluoromethyl)-1,3,4-oxadiazole], the “HDAC6 selectivity (fold)” value at human recombinant HDAC6 (HDAC1 IC50 / HDAC6 IC50) is reported as 116 fold. Moreover, the pIC50 is 6.37 at human recombinant HDAC6 (setting [1]) and < 4.30 on human recombinant HDAC1 (setting [2]).
Consider `Fc1cc(-c2nnc(C(F)F)o2)ccc1Cn1cc(-c2cccc3cc[nH]c23)nn1` [Compound 4082, 2-(4-((4-(1H-indol-7-yl)-1H-1,2,3-triazol-1-yl)methyl)-3-fluorophenyl)-5-(difluoromethyl)-1,3,4-oxadiazole], for which the “HDAC6 selectivity (fold)” value on human recombinant HDAC6 (HDAC1 IC50 / HDAC6 IC50) amounted to 349 fold. The pIC50 is 6.84 at human recombinant HDAC6 (setting [1]) and < 4.30 at human recombinant HDAC1 (setting [2]).
Regarding `Fc1cc(-c2nnc(C(F)F)o2)ccc1Cn1cc(-c2ccc(CNC3CCCC3)cc2)nn1` [Compound 4609, N-(4-(1-(4-(5-(difluoromethyl)-1,3,4-oxadiazol-2-yl)-2-fluorobenzyl)-1H-1,2,3-triazol-4-yl)benzyl)cyclopentanamine], the “HDAC6 selectivity (fold)” value at human recombinant HDAC6 (HDAC6 over HDAC1) came out at 3164 fold. The pIC50 is 7.80 at human recombinant HDAC6 (setting [3]) and < 4.30 at human recombinant HDAC1 (setting [4]).
`CC(C)(C)C(=O)Nc1cccc(-c2cn(Cc3ccc(-c4nnc(C(F)F)o4)cc3)nn2)c1` [Compound 4327, N-(3-(1-(4-(5-(difluoromethyl)-1,3,4-oxadiazol-2-yl)benzyl)-1H-1,2,3-triazol-4-yl)phenyl)pivalamide]: on human recombinant HDAC6 (HDAC1 IC50 / HDAC6 IC50), the “HDAC6 selectivity (fold)” value is 1396 fold. Also, the pIC50 is 7.45 at human recombinant HDAC6 (setting [1]) and < 4.30 on human recombinant HDAC1 (setting [2]).
As to `CN1Cc2cccc(-c3cn(Cc4ccc(-c5nnc(C(F)F)o5)cc4F)nn3)c2C1` [Compound 4534, 2-(difluoromethyl)-5-(3-fluoro-4-((4-(2-methylisoindolin-4-yl)-1H-1,2,3-triazol-1-yl)methyl)phenyl)-1,3,4-oxadiazole], the “HDAC6 selectivity (fold)” value on human recombinant HDAC6 (HDAC6 over HDAC1) was determined as 529 fold. Further, the values for the pIC50 at human recombinant HDAC6 (setting [3]) and on human recombinant HDAC1 (setting [4]) were 7.03 and < 4.30, respectively.
For `CN(C)CCN(C)C(=O)c1cccc(-c2cn(Cc3ccc(-c4nnc(C(F)F)o4)cn3)nn2)c1` [Compound 4449, 3-(1-((5-(5-(difluoromethyl)-1,3,4-oxadiazol-2-yl)pyridin-2-yl)methyl)-1H-1,2,3-triazol-4-yl)-N-(2-(dimethylamino)ethyl)-N-methylbenzamide], the “HDAC6 selectivity (fold)” value on human recombinant HDAC6 (HDAC1 IC50 / HDAC6 IC50) was found to be 3759 fold. In addition, the pIC50 is 7.88 at human recombinant HDAC6 (setting [1]) and < 4.30 on human recombinant HDAC1 (setting [2]).
For the molecule `C[C@@H]1CN(c2cccc(-c3cn(Cc4ccc(-c5nnc(C(F)F)o5)cc4F)nn3)c2)C[C@H](C)N1C` [Compound 4443, 2-(difluoromethyl)-5-(3-fluoro-4-((4-(3-((3R,5S)-3,4,5-trimethylpiperazin-1-yl)phenyl)-1H-1,2,3-triazol-1-yl)methyl)phenyl)-1,3,4-oxadiazole], the “HDAC6 selectivity (fold)” value at human recombinant HDAC6 (HDAC1 IC50 / HDAC6 IC50) was determined as 2183 fold. Besides, the pIC50 at human recombinant HDAC6 (setting [1]) is 7.64; on human recombinant HDAC1 (setting [2]), < 4.30.
In the case of `CC(C)N1CCN(c2cc(-c3cn(Cc4ccc(-c5nnc(C(F)F)o5)cc4F)nn3)ccn2)CC1` [Compound 4635], the “HDAC6 selectivity (fold)” value at human recombinant HDAC6 (HDAC6 over HDAC1) is recorded as 2525 fold. For the same molecule, the results for the pIC50 at human recombinant HDAC6 (setting [3]) and on human recombinant HDAC1 (setting [4]) were 7.70 and < 4.30, respectively.
`CN1CCc2ccc(-c3cn(Cc4ccc(-c5nnc(C(F)F)o5)cn4)nn3)cc2C1` [Compound 4209, 2-(difluoromethyl)-5-(6-((4-(2-methyl-1,2,3,4-tetrahydroisoquinolin-7-yl)-1H-1,2,3-triazol-1-yl)methyl)pyridin-3-yl)-1,3,4-oxadiazole]: at human recombinant HDAC6 (HDAC1 IC50 / HDAC6 IC50), the “HDAC6 selectivity (fold)” value is reported as 1298 fold. Besides, the pIC50 is 7.41 at human recombinant HDAC6 (setting [1]) and < 4.30 on human recombinant HDAC1 (setting [2]).
In the case of `CN1CCN(c2cc(-c3cn(Cc4ccc(-c5nnc(C(F)F)o5)cc4F)nn3)ccc2F)CC1` [Compound 4424, 2-(difluoromethyl)-5-(3-fluoro-4-((4-(4-fluoro-3-(4-methylpiperazin-1-yl)phenyl)-1H-1,2,3-triazol-1-yl)methyl)phenyl)-1,3,4-oxadiazol], the “HDAC6 selectivity (fold)” value at human recombinant HDAC6 (HDAC1 IC50 / HDAC6 IC50) was determined as 559 fold. Besides, the pIC50 at human recombinant HDAC6 (setting [1]) is 7.05; at human recombinant HDAC1 (setting [2]), < 4.30.
Take `CN(C)CC(=O)Nc1cccc(-c2cn(Cc3ccc(-c4nnc(C(F)F)o4)cn3)nn2)c1` [Compound 4230, N-(3-(1-((5-(5-(difluoromethyl)-1,3,4-oxadiazol-2-yl)pyridin-2-yl)methyl)-1H-1,2,3-triazol-4-yl)phenyl)-2-(dimethylamino)acetamide]: the “HDAC6 selectivity (fold)” value at human recombinant HDAC6 (HDAC1 IC50 / HDAC6 IC50) is given as 2173 fold. Further, the pIC50 on human recombinant HDAC6 (setting [1]) is 7.64; on human recombinant HDAC1 (setting [2]), < 4.30.
As for `Fc1cc(-c2nnc(C(F)F)o2)ccc1Cn1cc(-c2ccccc2CNC2CCC2)nn1` [Compound 4589, N-(2-(1-(4-(5-(difluoromethyl)-1,3,4-oxadiazol-2-yl)-2-fluorobenzyl)-1H-1,2,3-triazol-4-yl)benzyl)cyclobutanamine], the “HDAC6 selectivity (fold)” value at human recombinant HDAC6 (HDAC6 over HDAC1) amounted to 172 fold. The figures for the pIC50 on human recombinant HDAC6 (setting [3]) and on human recombinant HDAC1 (setting [4]) were 6.54 and < 4.30, respectively.
`OCCCCc1cn(Cc2ccc(-c3nnc(C(F)F)o3)cn2)nn1` [Compound 3834, 4-(1-((5-(5-(difluoromethyl)-1,3,4-oxadiazol-2-yl)pyridin-2-yl)methyl)-1H-1,2,3-triazol-4-yl)butan-1-ol]: the “HDAC6 selectivity (fold)” value at human recombinant HDAC6 (HDAC1 IC50 / HDAC6 IC50) is recorded as 217 fold. Moreover, the pIC50 is 6.62 on human recombinant HDAC6 (setting [1]) and < 4.30 at human recombinant HDAC1 (setting [2]).
As for `Fc1cc(-c2nnc(C(F)F)o2)ccc1Cn1cc(-c2ccc(C3CN(C4COC4)C3)cc2)nn1` [Compound 17700, 2-(difluoromethyl)-5-(3-fluoro-4-((4-(4-(1-(oxetan-3-yl)azetidin-3-yl)phenyl)-1H-1,2,3-triazol-1-yl)methyl)phenyl)-1,3,4-oxadiazole], the “HDAC6 selectivity (fold)” value at human recombinant HDAC6 (HDAC6 over HDAC1) came to 626 fold. Moreover, the pIC50 at human recombinant HDAC6 (setting [3]) is 7.10; on human recombinant HDAC1 (setting [4]), < 4.30.
On to `FC(F)c1nnc(-c2ccc(Cn3cc(-c4ccccc4-n4cncn4)nn3)nc2)o1` [Compound 4286, 2-(6-((4-(2-(1H-1,2,4-triazol-1-yl)phenyl)-1H-1,2,3-triazol-1-yl)methyl)pyridin-3-yl)-5-(difluoromethyl)-1,3,4-oxadiazole], for which the “HDAC6 selectivity (fold)” value at human recombinant HDAC6 (HDAC1 IC50 / HDAC6 IC50) came out at 154 fold. Besides, the figures for the pIC50 on human recombinant HDAC6 (setting [1]) and on human recombinant HDAC1 (setting [2]) were 6.49 and < 4.30, respectively.
Take `Fc1cc(-c2nnc(C(F)F)o2)ccc1Cn1cc(-c2ccc3c(c2)CN(CC2(F)CC2)C3)nn1` [Compound 17460, 2-(difluoromethyl)-5-(3-fluoro-4-((4-(2-((1-fluorocyclopropyl)methyl)isoindolin-5-yl)-1H-1,2,3-triazol-1-yl)methyl)phenyl)-1,3,4-oxadiazole]: the “HDAC6 selectivity (fold)” value on human recombinant HDAC6 (HDAC6 over HDAC1) amounted to 572 fold. For the same molecule, the pIC50 at human recombinant HDAC6 (setting [3]) is 7.06; at human recombinant HDAC1 (setting [4]), < 4.30.
